{
  "source": "patent US20100119483A1",
  "about": "“PEPTIDE VIRAL ENTRY INHIBITORS” (Schering Corporation, priority 2004, published 2010)",
  "key": {"HCV pseudoparticles": {"test_system": "HCV pseudoparticles", "assay": "HCV pseudoparticle (HCVpp) entry assay in Huh7 hepatoma cells, luciferase readout", "assay_type": "cell-based, hepatitis C virus", "details": "peptide library screen, first screened at 100 ug/ml; cell entry inhibition vs uninhibited control", "how_it_was_run": "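Pseudoparticles carrying HCV E1/E2 on an HIV luciferase backbone were produced in 293T cells; peptide was pre-incubated 1 h at 37 °C with Huh7 cells, then virus added and luciferase read after 72 h. Dose-response used 10-point 3-fold titration from 100 ug/ml; envelope-less particles controlled non-specific entry.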"}, "[1]": {"test_system": "amphotropic murine leukemia virus", "assay": "AMLV pseudotyped virus entry counter-screen, same infection protocol", "assay_type": "cell-based", "details": "peptide library screen; cell entry inhibition vs uninhibited control", "protocol": "Infection of hepatoma cell lines with HCV pseudotype particles and screen for inhibitory peptides. The hepatoma cells, Huh7, was seeded at 8000 cells in 90 ul medium in 96-well plate. In the case of the inhibitor screen, the inhibitor was incubated with cells for one hour at 37° C. and then 50 ul viral supernatant was added to the cells 24 hours after seeding. The viral stock was pre-tittered and diluted to yield approximately 10,000 to 20,000 RLU. The cells were incubated at 37° C. with 5% CO2 for additional 72 hours and were harvested for luciferase assay. Peptide stocks were prepared in 100% DMSO at 10 mg/ml and were first screened at 100 ug/ml and then a dose responsive curve was generated with 10 points 3-fold titration starting from 100 ug/ml.\nThe specificity of the peptides were counter-screened with AMLV and HIV pseudotyped viruses using the same infection protocol."}},
  "data": [
    {"substance": "D-V-L-L-L-N-N-T-R-P-P-Q-G-N-W-F [SEQ ID NO: 52]", "values": [
      {"measurement": "HCVpp % inh", "setting": "HCV pseudoparticles", "value": 10, "unit": "%"},
      {"measurement": "AMLVpp % inh", "setting": "[1]", "value": 16, "unit": "%"}
    ]},
    {"substance": "E-A-T-Y-T-K-C-G-S-G-P-W-L-T-P-R (EATYTKCGSGPWLTPR; HCV peptide) [SEQ ID NO: 60]", "values": [
      {"measurement": "HCVpp % inh", "setting": "HCV pseudoparticles", "value": 13, "unit": "%"},
      {"measurement": "AMLVpp % inh", "setting": "[1]", "value": 17, "unit": "%"}
    ]},
    {"substance": "E-L-S-P-L-L-L-S-T-T-E-W-Q-V-L-P [SEQ ID NO: 70]", "values": [
      {"measurement": "HCVpp % inh", "setting": "HCV pseudoparticles", "value": 10, "unit": "%"},
      {"measurement": "AMLVpp % inh", "setting": "[1]", "value": 44, "unit": "%"}
    ]},
    {"substance": "E-Y-V-L-L-L-F-L-L-L-A-D-A-R-V-C [SEQ ID NO: 78]", "values": [
      {"measurement": "HCVpp % inh", "setting": "HCV pseudoparticles", "value": 38, "unit": "%"},
      {"measurement": "AMLVpp % inh", "setting": "[1]", "value": 34, "unit": "%"}
    ]},
    {"substance": "F-A-Q-G-W-G-P-I-T-Y-N-E-S-H-S-S [SEQ ID NO: 42]", "values": [
      {"measurement": "HCVpp % inh", "setting": "HCV pseudoparticles", "value": 49, "unit": "%"},
      {"measurement": "AMLVpp % inh", "setting": "[1]", "value": 15, "unit": "%"}
    ]},
    {"substance": "F-L-A-A-L-F-Y-V-H-K-F-N-S-S-G-C [SEQ ID NO: 38]", "values": [
      {"measurement": "HCVpp % inh", "setting": "HCV pseudoparticles", "value": 23, "unit": "%"},
      {"measurement": "AMLVpp % inh", "setting": "[1]", "value": "−44", "unit": "%"}
    ]},
    {"substance": "G-C-P-E-R-M-A-S-C-S-P-I-D-A-F-A [SEQ ID NO: 40]", "values": [
      {"measurement": "HCVpp % inh", "setting": "HCV pseudoparticles", "value": 35, "unit": "%"},
      {"measurement": "AMLVpp % inh", "setting": "[1]", "value": "−4", "unit": "%"}
    ]},
    {"substance": "G-H-V-T-G-H-R-M-A-W-D-M-M-M-N-W [SEQ ID NO: 20]", "values": [
      {"measurement": "HCVpp % inh", "setting": "HCV pseudoparticles", "value": 43, "unit": "%"},
      {"measurement": "AMLVpp % inh", "setting": "[1]", "value": 6, "unit": "%"}
    ]},
    {"substance": "G-S-G-P-W-L-T-P-R-C-L-V-H-Y-P-Y (GSGPWLTPRCLVHYPY; HCV peptide) [SEQ ID NO: 61]", "values": [
      {"measurement": "HCVpp % inh", "setting": "HCV pseudoparticles", "value": "−15", "unit": "%"},
      {"measurement": "AMLVpp % inh", "setting": "[1]", "value": "−8", "unit": "%"}
    ]},
    {"substance": "G-V-Y-H-V-T-N-D-C-S-N-A-S-I-V-Y [SEQ ID NO: 4]", "values": [
      {"measurement": "HCVpp % inh", "setting": "HCV pseudoparticles", "value": "−23", "unit": "%"},
      {"measurement": "AMLVpp % inh", "setting": "[1]", "value": "−6", "unit": "%"}
    ]},
    {"substance": "I-F-K-V-R-M-Y-V-G-G-V-E-H-R-L-E (IFKVRMYVGGVEHRLE; HCV peptide) [SEQ ID NO: 65]", "values": [
      {"measurement": "HCVpp % inh", "setting": "HCV pseudoparticles", "value": 19, "unit": "%"},
      {"measurement": "AMLVpp % inh", "setting": "[1]", "value": "−62", "unit": "%"}
    ]},
    {"substance": "I-M-H-T-P-G-C-V-P-C-V-R-E-N-N-S [SEQ ID NO: 7]", "values": [
      {"measurement": "HCVpp % inh", "setting": "HCV pseudoparticles", "value": 3, "unit": "%"},
      {"measurement": "AMLVpp % inh", "setting": "[1]", "value": "−4", "unit": "%"}
    ]}
  ]
}
